Measurements as given in patent publication US6958318B2, “Recombinant bacterial cells for delivery of PNP to tumor cells” (The UAB Research Foundation, priority 1993, dated 2005).

Key:
[1] = Systemically administered dose response (toxicity) in mice; format: in vivo
Procedure: The formula of Freireich et al., Cancer Chemother. Rep., 50:219-244, (1966) can be used to determine the maximum tolerated dose of substrate for a human subject. […] This amount or slightly less should result in maximal effectiveness of tumor cell killing in humans without killing the subject. This standard of effectiveness is accepted in the field of cancer therapy. However, more preferred is a range of from about 10% to 1% of the maximum tolerated dosage (for example, 7.5 mg/m^2-0.75 mg/m^2). Furthermore, it is understood that modes of administration that permit the substrate to remain localized at or near the site of the tumor will be effective at lower doses than systemically administered substrates.

Lewis Lung tumors = Lewis Lung tumors treated with recombinant E. coli and MeP-dR
[2] = literature; cited from earlier work
[3] = tested on: wild type murine breast carcinoma cells (16/C cell line); test: Wild-type 16/C tumors in nude mice; format: in vivo; details: FIG. 6
Procedure: For studies conducted with nu/nu mice, cells obtained from stable cultures of transduced cell lines were injected subcutaneously into the right or left flank of the mice. Mice with visible tumor growth were used for further studies. For the administration of purine prodrug, mice were administered MeP-dR or F-araAMP by IP injection.
Four to five nude (nu/nu) mice per group were inoculated with wild type murine breast carcinoma cells (16/C cell line), or PNP transduced 16/C cells. Mice with established tumors (approximately 100 mm^3) were treated with MeP-dR (100 mg/kg/d IP×3 d) or F-araAMP (100 mg/kg/IP 3 id×3 d).

[4] = 67 mg/kg, IP Qd×3d plus recombinant E. coli

**Q.** Which Toxicity in mice ([1]; 25 mg per kg per day for 9 days) does the source give for Cc1ncnc2c1ncn2[C@H]1C[C@H](O)[C@@H](CO)O1 [MeP-dR, 9-(β-D-2-deoxyerythropentofuranosyl)-6-methylpurine] here?
**A.** Its Toxicity in mice is “some toxicity but no lethality”.

**Q.** And the “Human dosage (maximum tolerated dose) by formula of Freireich” value ([1]; 25 mg/kg×3)?
**A.** The value was 75 mg/m^2.

**Q.** And the “Delay of tumor growth” value (Lewis Lung tumors; 33.5 mg/kg once a day for three days plus recombinant E. coli)?
**A.** The value was “approximately 42%”.

**Q.** What about the Host toxicity (Lewis Lung tumors; 33.5 mg/kg plus recombinant E. coli) of the same molecule?
**A.** The Host toxicity was “without host toxicity”.

**Q.** What about the Anti-tumor effect (Lewis Lung tumors; [4]) of the same molecule?
**A.** Its Anti-tumor effect is “anti-tumor effects were again observed”.

**Q.** What about the Host toxicity (Lewis Lung tumors; [4]) of the same molecule?
**A.** The Host toxicity was “toxic, with several deaths”.

**Q.** And the “Toxicity of prodrug relative to its purine analog” value [2]?
**A.** The value was “much less toxic than their respective purine analogs”.

**Q.** And the “Effect on growth of wild-type 16/C tumors” value [3]?
**A.** Its value is “only a small effect on tumor growth”.
